Assay results: PubChem BioAssay (NCI)
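GI50 marks 50% less growth. At the TGI there is no net growth.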

Tests used:
Test in all cases: inhibition of tumour cell growth, NCI panel, 384-well format
786-0 renal = test system: 786-0 renal
A498 renal = test system: A498 renal
A549 NSCLC = test system: A549 NSCLC
ACHN renal = test system: ACHN renal
BT-549 breast = test system: BT-549 breast
CAKI-1 renal = test system: CAKI-1 renal
CCRF-CEM leukemia = test system: CCRF-CEM leukemia
COLO 205 colon = test system: COLO 205 colon
DU-145 prostate = test system: DU-145 prostate
EKVX NSCLC = test system: EKVX NSCLC
HCT-15 colon = test system: HCT-15 colon
HL-60(TB) leukemia = test system: HL-60(TB) leukemia
HOP-62 NSCLC = test system: HOP-62 NSCLC
HOP-92 NSCLC = test system: HOP-92 NSCLC
HS 578T breast = test system: HS 578T breast
HT29 colon = test system: HT29 colon
IGROV1 ovarian = test system: IGROV1 ovarian
K-562 leukemia = test system: K-562 leukemia
KM12 colon = test system: KM12 colon
LOX IMVI melanoma = test system: LOX IMVI melanoma
M14 melanoma = test system: M14 melanoma
MALME-3M melanoma = test system: MALME-3M melanoma
MDA-MB-231 breast = test system: MDA-MB-231 breast
MDA-MB-435 melanoma = test system: MDA-MB-435 melanoma
MOLT-4 leukemia = test system: MOLT-4 leukemia
NCI-H226 lung = test system: NCI-H226 lung
NCI-H23 lung = test system: NCI-H23 lung
NCI-H322M lung = test system: NCI-H322M lung
NCI-H460 NSCLC = test system: NCI-H460 NSCLC
NCI-H522 lung = test system: NCI-H522 lung
NCI/ADR-RES ovarian = test system: NCI/ADR-RES ovarian
OVCAR-3 ovarian = test system: OVCAR-3 ovarian
OVCAR-4 ovarian = test system: OVCAR-4 ovarian
OVCAR-5 ovarian = test system: OVCAR-5 ovarian
OVCAR-8 ovarian = test system: OVCAR-8 ovarian
PC-3 prostate = test system: PC-3 prostate
RPMI-8226 leukemia = test system: RPMI-8226 leukemia
RXF 393 renal = test system: RXF 393 renal
SF-268 CNS = test system: SF-268 CNS
SF-295 CNS = test system: SF-295 CNS
SF-539 CNS = test system: SF-539 CNS
SK-MEL-28 melanoma = test system: SK-MEL-28 melanoma
SK-OV-3 ovarian = test system: SK-OV-3 ovarian
SN12C renal = test system: SN12C renal
SNB-19 CNS = test system: SNB-19 CNS
SNB-75 CNS = test system: SNB-75 CNS
SR leukemia = test system: SR leukemia
SW-620 colon = test system: SW-620 colon
T-47D breast = test system: T-47D breast
TK-10 renal = test system: TK-10 renal
UACC-257 melanoma = test system: UACC-257 melanoma
UACC-62 melanoma = test system: UACC-62 melanoma
UO-31 renal = test system: UO-31 renal

## Nc1ncnc2c1ccn2[C@@H]1O[C@H]([C@H](O)c2ccc(Cl)c(F)c2)[C@@H](O)[C@H]1O
786-0 renal
  GI50: 72.9 µM
  TGI: > 100 µM
A498 renal
  GI50: 85.1 µM
  TGI: > 100 µM
A549 NSCLC
  GI50: > 100 µM
  TGI: > 100 µM
ACHN renal
  GI50: > 100 µM
  TGI: > 100 µM
BT-549 breast
  GI50: > 100 µM
  TGI: > 100 µM
CAKI-1 renal
  GI50: > 100 µM
  TGI: > 100 µM
CCRF-CEM leukemia
  GI50: 33.9 µM
  TGI: > 100 µM
COLO 205 colon
  GI50: > 100 µM
  TGI: > 100 µM
DU-145 prostate
  GI50: > 100 µM
  TGI: > 100 µM
EKVX NSCLC
  GI50: 83.9 µM
  TGI: > 100 µM
HCT-15 colon
  GI50: > 100 µM
  TGI: > 100 µM
HL-60(TB) leukemia
  GI50: 77.1 µM
  TGI: > 100 µM
HOP-62 NSCLC
  GI50: > 100 µM
  TGI: > 100 µM
HOP-92 NSCLC
  GI50: > 100 µM
  TGI: > 100 µM
HS 578T breast
  GI50: > 100 µM
  TGI: > 100 µM
HT29 colon
  GI50: 37.4 µM
  TGI: > 100 µM
IGROV1 ovarian
  GI50: 28.7 µM
  TGI: > 100 µM
K-562 leukemia
  GI50: 32.7 µM
  TGI: > 100 µM
KM12 colon
  GI50: < 0.01 µM
  TGI: > 100 µM
LOX IMVI melanoma
  GI50: > 100 µM
  TGI: > 100 µM
M14 melanoma
  GI50: > 100 µM
  TGI: > 100 µM
MALME-3M melanoma
  GI50: 40.9 µM
  TGI: > 100 µM
MDA-MB-231 breast
  GI50: > 100 µM
  TGI: > 100 µM
MDA-MB-435 melanoma
  GI50: > 100 µM
  TGI: > 100 µM
MOLT-4 leukemia
  GI50: < 0.01 µM
NCI-H226 lung
  GI50: > 100 µM
  TGI: > 100 µM
NCI-H23 lung
  GI50: 52.9 µM
  TGI: > 100 µM
NCI-H322M lung
  GI50: > 100 µM
  TGI: > 100 µM
NCI-H460 NSCLC
  GI50: < 0.01 µM
  TGI: > 100 µM
NCI-H522 lung
  GI50: > 100 µM
  TGI: > 100 µM
NCI/ADR-RES ovarian
  GI50: > 100 µM
  TGI: > 100 µM
OVCAR-3 ovarian
  GI50: > 100 µM
  TGI: > 100 µM
OVCAR-4 ovarian
  GI50: < 0.01 µM
  TGI: > 100 µM
OVCAR-5 ovarian
  GI50: > 100 µM
  TGI: > 100 µM
OVCAR-8 ovarian
  GI50: > 100 µM
  TGI: > 100 µM
PC-3 prostate
  GI50: 97.7 µM
  TGI: > 100 µM
RPMI-8226 leukemia
  GI50: 12.6 µM
  TGI: > 100 µM
RXF 393 renal
  GI50: > 100 µM
  TGI: > 100 µM
SF-268 CNS
  GI50: > 100 µM
  TGI: > 100 µM
SF-295 CNS
  GI50: > 100 µM
  TGI: > 100 µM
SF-539 CNS
  GI50: > 100 µM
  TGI: > 100 µM
SK-MEL-28 melanoma
  GI50: > 100 µM
  TGI: > 100 µM
SK-OV-3 ovarian
  GI50: 50.3 µM
  TGI: > 100 µM
SN12C renal
  GI50: 41.6 µM
  TGI: > 100 µM
SNB-19 CNS
  GI50: > 100 µM
  TGI: > 100 µM
SNB-75 CNS
  GI50: > 100 µM
  TGI: > 100 µM
SR leukemia
  GI50: < 0.01 µM
  TGI: > 100 µM
SW-620 colon
  GI50: > 100 µM
  TGI: > 100 µM
T-47D breast
  GI50: < 0.01 µM
  TGI: > 100 µM
TK-10 renal
  GI50: > 100 µM
  TGI: > 100 µM
UACC-257 melanoma
  GI50: > 100 µM
  TGI: > 100 µM
UACC-62 melanoma
  GI50: > 100 µM
  TGI: > 100 µM
UO-31 renal
  GI50: > 100 µM
  TGI: > 100 µM
